Laboratory results taken from PubChem BioAssay (NCI).
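96-well plates; 48 h exposure; 5 concentrations. Endpoints by linear interpolation between flanking doses. Not reached: highest tested concentration assigned. GI50 = concentration required for 50% inhibition of growth. Definition used: TGI = concentration required for complete inhibition of growth.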

Key:
Assay in all cases: inhibition of tumour cell growth, NCI panel, 48 h
COLO 205 colon = system: COLO 205 colon
HOP-92 NSCLC = system: HOP-92 NSCLC
A498 renal = system: A498 renal
UACC-257 melanoma = system: UACC-257 melanoma
SNB-75 CNS = system: SNB-75 CNS
HCT-116 colon = system: HCT-116 colon
MALME-3M melanoma = system: MALME-3M melanoma
HL-60(TB) leukemia = system: HL-60(TB) leukemia
SK-MEL-5 melanoma = system: SK-MEL-5 melanoma
OVCAR-4 ovarian = system: OVCAR-4 ovarian
NCI/ADR-RES ovarian = system: NCI/ADR-RES ovarian
HT29 colon = system: HT29 colon
786-0 renal = system: 786-0 renal
OVCAR-3 ovarian = system: OVCAR-3 ovarian
SK-OV-3 ovarian = system: SK-OV-3 ovarian
IGROV1 ovarian = system: IGROV1 ovarian
NCI-H23 lung = system: NCI-H23 lung
NCI-H460 lung = system: NCI-H460 lung
TK-10 renal = system: TK-10 renal
RXF 393 renal = system: RXF 393 renal
EKVX NSCLC = system: EKVX NSCLC
KM12 colon = system: KM12 colon
M14 melanoma = system: M14 melanoma
HCT-15 colon = system: HCT-15 colon
NCI-H522 lung = system: NCI-H522 lung
LOX IMVI melanoma = system: LOX IMVI melanoma
SK-MEL-28 melanoma = system: SK-MEL-28 melanoma
A549 NSCLC = system: A549 NSCLC
MDA-MB-231 breast = system: MDA-MB-231 breast
SN12C renal = system: SN12C renal
BT-549 breast = system: BT-549 breast
U251 CNS = system: U251 CNS
NCI-H226 lung = system: NCI-H226 lung
ACHN renal = system: ACHN renal
OVCAR-8 ovarian = system: OVCAR-8 ovarian
MDA-MB-435 = system: MDA-MB-435
SF-295 CNS = system: SF-295 CNS
UACC-62 melanoma = system: UACC-62 melanoma
DU-145 prostate = system: DU-145 prostate
T-47D breast = system: T-47D breast
MCF7 breast = system: MCF7 breast
SNB-19 CNS = system: SNB-19 CNS
SW-620 colon = system: SW-620 colon
K-562 leukemia = system: K-562 leukemia
SR leukemia = system: SR leukemia
HCC-2998 colon = system: HCC-2998 colon
SK-MEL-2 melanoma = system: SK-MEL-2 melanoma
PC-3 prostate = system: PC-3 prostate
HS 578T breast = system: HS 578T breast
HOP-62 NSCLC = system: HOP-62 NSCLC
CCRF-CEM leukemia = system: CCRF-CEM leukemia
OVCAR-5 ovarian = system: OVCAR-5 ovarian
SF-539 CNS = system: SF-539 CNS
MOLT-4 leukemia = system: MOLT-4 leukemia
RPMI-8226 leukemia = system: RPMI-8226 leukemia
UO-31 renal = system: UO-31 renal
SF-268 CNS = system: SF-268 CNS

SMILES: COc1ccc(-c2cc(C(=O)N3N=C(c4ccc(N)cc4)CC3c3ccc(Cl)cc3)c3ccccc3n2)cc1 (centres undefined)
- GI50 (COLO 205 colon): 1990 nM
- TGI (COLO 205 colon): 6.58 µM
- GI50 (HOP-92 NSCLC): 1920 nM
- TGI (HOP-92 NSCLC): > 100 µM
- GI50 (A498 renal): 375 nM
- TGI (A498 renal): 914 nM
- GI50 (UACC-257 melanoma): > 100 µM
- TGI (UACC-257 melanoma): > 100 µM
- GI50 (SNB-75 CNS): 371 nM
- TGI (SNB-75 CNS): 8.66 µM
- GI50 (HCT-116 colon): 1410 nM
- TGI (HCT-116 colon): > 100 µM
- GI50 (MALME-3M melanoma): > 100 µM
- TGI (MALME-3M melanoma): > 100 µM
- GI50 (HL-60(TB) leukemia): 2540 nM
- TGI (HL-60(TB) leukemia): > 100 µM
- GI50 (SK-MEL-5 melanoma): 701 nM
- TGI (SK-MEL-5 melanoma): 9.25 µM
- GI50 (OVCAR-4 ovarian): 1820 nM
- TGI (OVCAR-4 ovarian): > 100 µM
- GI50 (NCI/ADR-RES ovarian): 519 nM
- TGI (NCI/ADR-RES ovarian): > 100 µM
- GI50 (HT29 colon): 1130 nM
- TGI (HT29 colon): > 100 µM
- GI50 (786-0 renal): 1840 nM
- TGI (786-0 renal): > 100 µM
- GI50 (OVCAR-3 ovarian): 462 nM
- TGI (OVCAR-3 ovarian): 8.55 µM
- GI50 (SK-OV-3 ovarian): 3.32 µM
- TGI (SK-OV-3 ovarian): > 100 µM
- GI50 (IGROV1 ovarian): 4.98 µM
- TGI (IGROV1 ovarian): > 100 µM
- GI50 (NCI-H23 lung): 3.14 µM
- TGI (NCI-H23 lung): > 100 µM
- GI50 (NCI-H460 lung): 1890 nM
- TGI (NCI-H460 lung): > 100 µM
- GI50 (TK-10 renal): 52.3 µM
- TGI (TK-10 renal): > 100 µM
- GI50 (RXF 393 renal): 698 nM
- TGI (RXF 393 renal): 8.22 µM
- GI50 (EKVX NSCLC): 3.78 µM
- TGI (EKVX NSCLC): > 100 µM
- GI50 (KM12 colon): 1150 nM
- TGI (KM12 colon): > 100 µM
- GI50 (M14 melanoma): 1160 nM
- TGI (M14 melanoma): > 100 µM
- GI50 (HCT-15 colon): 1030 nM
- TGI (HCT-15 colon): > 100 µM
- GI50 (NCI-H522 lung): 307 nM
- TGI (NCI-H522 lung): 1800 nM
- GI50 (LOX IMVI melanoma): 1560 nM
- TGI (LOX IMVI melanoma): > 100 µM
- GI50 (SK-MEL-28 melanoma): 3.78 µM
- TGI (SK-MEL-28 melanoma): > 100 µM
- GI50 (A549 NSCLC): 2330 nM
- TGI (A549 NSCLC): > 100 µM
- GI50 (MDA-MB-231 breast): 3.28 µM
- TGI (MDA-MB-231 breast): > 100 µM
- GI50 (SN12C renal): 4.27 µM
- TGI (SN12C renal): > 100 µM
- GI50 (BT-549 breast): 2040 nM
- TGI (BT-549 breast): 73 µM
- GI50 (U251 CNS): 2180 nM
- TGI (U251 CNS): > 100 µM
- GI50 (NCI-H226 lung): 7.54 µM
- TGI (NCI-H226 lung): > 100 µM
- GI50 (ACHN renal): 1470 nM
- TGI (ACHN renal): > 100 µM
- GI50 (OVCAR-8 ovarian): 4.16 µM
- TGI (OVCAR-8 ovarian): > 100 µM
- GI50 (MDA-MB-435): 305 nM
- TGI (MDA-MB-435): 2220 nM
- GI50 (SF-295 CNS): 540 nM
- TGI (SF-295 CNS): > 100 µM
- GI50 (UACC-62 melanoma): 556 nM
- TGI (UACC-62 melanoma): > 100 µM
- GI50 (DU-145 prostate): 3.16 µM
- TGI (DU-145 prostate): > 100 µM
- GI50 (T-47D breast): 2710 nM
- TGI (T-47D breast): > 100 µM
- GI50 (MCF7 breast): 442 nM
- TGI (MCF7 breast): > 100 µM
- GI50 (SNB-19 CNS): 5.54 µM
- TGI (SNB-19 CNS): > 100 µM
- GI50 (SW-620 colon): 1240 nM
- TGI (SW-620 colon): > 100 µM
- GI50 (K-562 leukemia): 1050 nM
- TGI (K-562 leukemia): > 100 µM
- GI50 (SR leukemia): 595 nM
- TGI (SR leukemia): > 100 µM
- GI50 (HCC-2998 colon): 3.4 µM
- TGI (HCC-2998 colon): > 100 µM
- GI50 (SK-MEL-2 melanoma): 2030 nM
- TGI (SK-MEL-2 melanoma): > 100 µM
- GI50 (PC-3 prostate): 2030 nM
- TGI (PC-3 prostate): > 100 µM
- GI50 (HS 578T breast): 1050 nM
- TGI (HS 578T breast): > 100 µM
- GI50 (HOP-62 NSCLC): 3.21 µM
- TGI (HOP-62 NSCLC): > 100 µM
- GI50 (CCRF-CEM leukemia): 5.84 µM
- TGI (CCRF-CEM leukemia): > 100 µM
- GI50 (OVCAR-5 ovarian): 5.51 µM
- TGI (OVCAR-5 ovarian): > 100 µM
- GI50 (SF-539 CNS): 1410 nM
- TGI (SF-539 CNS): > 100 µM
- GI50 (MOLT-4 leukemia): 3.3 µM
- TGI (MOLT-4 leukemia): > 100 µM
- GI50 (RPMI-8226 leukemia): 3.86 µM
- TGI (RPMI-8226 leukemia): > 100 µM
- GI50 (UO-31 renal): 1550 nM
- TGI (UO-31 renal): > 100 µM
- GI50 (SF-268 CNS): 2190 nM
- TGI (SF-268 CNS): > 100 µM
